Source: patent EP2468718A1, “Cabanillasin, a new antifungal compound, produced by entomopathogenic xenorhabdus cabanillasii” (Nosopharm, priority 2010, dated 2012)
Values after ≈ are worked out from the molar mass of the structure shown. Like-named read-outs stand apart in the source and are kept apart here.

Experiments:
[1] = tested on: Aspergilus fumigatus clinical strain; assay: Antifungal susceptibility testing, M38-A microdilution method (filamentous fungi); type: cell-based, Aspergillus fumigatus; conditions: for inhibition at 0.09 µg/mL / inhibition at 0.19 µg/mL / inhibition at 0.39 µg/mL / inhibition at 0.78 µg/mL / inhibition at 1.56 µg/mL / inhibition at 3.12 µg/mL / inhibition at 6.25 µg/mL / inhibition at 12.5 µg/mL / inhibition at 25 µg/mL / inhibition at 50 µg/mL: Aspergillus fumigatus, read-out: % of growth inhibition
Protocol: (§1) Cabanillasin activity was tested against different fungal human pathogens: ascomycetes yeasts (Candida albicans ATCC 90029, Candida Glabrata ATCC 90030, Candida krusei ATCC 6258 and Candida lusitaniae CBS 6936), basidiomycetes yeasts (Cryptococcus neoformans clinical strain), ascomycetes filamentous fungi (Aspergilus fumigatus clinical strain, Fusarium oxysporum clinical strain) and zygomycetes filamentous fungi (Rhizopus oryzae environemental strain) by the M38-A microdilution method with RPMI 1640 medium (RPMI 1640, MOPS 160 mM, glucose 18 g/L, pH 7) as recommended in the […]. The NCCLS M27-A2 broth microdilution method (NCCLS) was used when yeasts were tested.
(§2) Yeasts and filamentous inoculi were prepared on YPD medium (yeast extract 10 g/L, peptone 10 g/L and glucose 20 g/L) and Malt medium (malt extract 20 g/L) respectively. The densities of inoculi were adjusted by dilution in RPMI 1640 broth to a value ranged from 5.10^2 to 5.10^3 CFU/mL for yeasts isolates and 5.10^3 to 5.10^4 CFU/mL for filamentous fungi. Microdilution trays (96 U-bottom shaped) containing 190 µL fungal inoculum were added with 10 µL Cabanillasin solution (final concentration ranging from 50 to 0.098 mg/L for all fungi). After inoculation of the trays, all microdilution trays were incubated at 35°C in ambient air. The culture absorbance was measured at 600 nm, 24 h and 48 h after the beginning of the experiments for the yeasts and 48 h and 72 h after the beginning of the experiments for filamentous fungi and Cryptococcus neoformans. The activity results correspond to a percentage of growth inhibition ((1-Abs600 nm culture with Cabanillasin)/ Abs600 nm culture without Cabanillasin) x 100.
(§3) The IC50 value is the concentration at which inhibition of growth is equal to 50%. MICs for Candida species were determined at 24 h and 48 h and corresponded to 100% of growth inhibition. Amphotericin B was provided as standard (final concentration ranging from 16 to 0.03 mg/L for all fungi). Experiments were done in duplicate.

[2] = tested on: Fusarium oxysporum clinical strain; assay: as above; type: cell-based; conditions: for inhibition at 0.09 µg/mL / inhibition at 0.19 µg/mL / inhibition at 0.39 µg/mL / inhibition at 0.78 µg/mL / inhibition at 1.56 µg/mL / inhibition at 3.12 µg/mL / inhibition at 6.25 µg/mL / inhibition at 12.5 µg/mL / inhibition at 25 µg/mL / inhibition at 50 µg/mL: read-out: % of growth inhibition
Protocol: as §1, §2, §3

[3] = tested on: Rhizopus oryzae environemental strain; assay: as above; type: cell-based; conditions: for inhibition at 0.09 µg/mL / inhibition at 0.19 µg/mL / inhibition at 0.39 µg/mL / inhibition at 0.78 µg/mL / inhibition at 1.56 µg/mL / inhibition at 3.12 µg/mL / inhibition at 6.25 µg/mL / inhibition at 12.5 µg/mL / inhibition at 25 µg/mL / inhibition at 50 µg/mL: Rhizopus arrhizus, read-out: % of growth inhibition
Protocol: as §1, §2, §3

[4] = tested on: Candida lusitaniae CBS 6936; assay: Antifungal susceptibility testing, NCCLS M27-A2 broth microdilution (yeasts); type: cell-based; conditions: Clavispora lusitaniae, CBS6936; for inhibition at 0.09 µg/mL / inhibition at 0.19 µg/mL / inhibition at 0.39 µg/mL / inhibition at 0.78 µg/mL / inhibition at 1.56 µg/mL / inhibition at 3.12 µg/mL / inhibition at 6.25 µg/mL / inhibition at 12.5 µg/mL / inhibition at 25 µg/mL / inhibition at 50 µg/mL: read-out: % of growth inhibition
Protocol: as §1, §2, §3

[5] = tested on: Candida albicans ATCC 90029; assay: as above; type: cell-based; conditions: for inhibition at 0.09 µg/mL: ATCC90029, 0.09 µg/mL; for inhibition at 0.09 µg/mL / inhibition at 0.19 µg/mL / inhibition at 0.39 µg/mL / inhibition at 0.78 µg/mL / inhibition at 1.56 µg/mL / inhibition at 3.12 µg/mL / inhibition at 6.25 µg/mL / inhibition at 12.5 µg/mL / inhibition at 25 µg/mL / inhibition at 50 µg/mL: read-out: % of growth inhibition; for inhibition at 0.19 µg/mL: ATCC90029, 0.19 µg/mL; for inhibition at 0.39 µg/mL: ATCC90029, 0.39 µg/mL; for inhibition at 0.78 µg/mL: ATCC90029, 0.78 µg/mL; for inhibition at 1.56 µg/mL: ATCC90029, 1.56 µg/mL; for inhibition at 3.12 µg/mL: ATCC90029, 3.12 µg/mL; for inhibition at 6.25 µg/mL: ATCC90029, 6.25 µg/mL; for inhibition at 12.5 µg/mL: ATCC90029, 12.5 µg/mL; for inhibition at 25 µg/mL: ATCC90029, 25 µg/mL; for inhibition at 50 µg/mL: ATCC90029, 50 µg/mL
Protocol: as §1, §2, §3

`CC(=O)NC(=N)NCCCCNC(=N)NCCCCNC(=N)NCCCCNC(=N)NCCCCN` [Cabanillasin] showed an inhibition at 0.09 µg/mL ([1]; 48 h incubation) of 0%, an inhibition at 0.09 µg/mL ([1]; 72 h incubation) of 0% and an inhibition at 0.19 µg/mL ([1]; 48 h incubation) of 0%. The inhibition at 0.19 µg/mL ([1]; 72 h incubation) was 0%, the inhibition at 0.39 µg/mL ([1]; 48 h incubation) was 0% and the inhibition at 0.39 µg/mL ([1]; 72 h incubation) was 0%. It also gave an inhibition at 0.78 µg/mL ([1]; 48 h incubation) of 0%, an inhibition at 0.78 µg/mL ([1]; 72 h incubation) of 0% and an inhibition at 1.56 µg/mL ([1]; 48 h incubation) of 0%. The inhibition at 1.56 µg/mL ([1]; 72 h incubation) was 0%, the inhibition at 3.12 µg/mL ([1]; 48 h incubation) was 0% and the inhibition at 3.12 µg/mL ([1]; 72 h incubation) was 0%. It also gave an inhibition at 6.25 µg/mL ([1]; 48 h incubation) of 0%, an inhibition at 6.25 µg/mL ([1]; 72 h incubation) of 0% and an inhibition at 12.5 µg/mL ([1]; 48 h incubation) of 0%. For the same compound, the inhibition at 12.5 µg/mL ([1]; 72 h incubation) was 0%, the inhibition at 25 µg/mL ([1]; 48 h incubation) was 0% and the inhibition at 25 µg/mL ([1]; 72 h incubation) was 0%. The inhibition at 50 µg/mL ([1]; 48 h incubation) was 65.2%, the inhibition at 50 µg/mL ([1]; 72 h incubation) was 0% and the activity ([1]; at 48h) was “weak activity”. The activity ([1]; at 72 h) was “no activity”, the inhibition at 0.09 µg/mL ([2]; 48 h incubation) was 0% and the inhibition at 0.09 µg/mL ([2]; 72 h incubation) was 0%. It also gave an inhibition at 0.19 µg/mL ([2]; 48 h incubation) of 0%, an inhibition at 0.19 µg/mL ([2]; 72 h incubation) of 0% and an inhibition at 0.39 µg/mL ([2]; 48 h incubation) of 0%. The inhibition at 0.39 µg/mL ([2]; 72 h incubation) was 0%, the inhibition at 0.78 µg/mL ([2]; 48 h incubation) was 0% and the inhibition at 0.78 µg/mL ([2]; 72 h incubation) was 0%. For the same compound, the inhibition at 1.56 µg/mL ([2]; 48 h incubation) was 0%, the inhibition at 1.56 µg/mL ([2]; 72 h incubation) was 0% and the inhibition at 3.12 µg/mL ([2]; 48 h incubation) was 32.1%. The inhibition at 3.12 µg/mL ([2]; 72 h incubation) was 0%, the inhibition at 6.25 µg/mL ([2]; 48 h incubation) was 68.6% and the inhibition at 6.25 µg/mL ([2]; 72 h incubation) was 48.6%. The inhibition at 12.5 µg/mL ([2]; 48 h incubation) was 71.6%, the inhibition at 12.5 µg/mL ([2]; 72 h incubation) was 56.4% and the inhibition at 25 µg/mL ([2]; 48 h incubation) was 66.6%. The inhibition at 25 µg/mL ([2]; 72 h incubation) was 72.5%, the inhibition at 50 µg/mL ([2]; 48 h incubation) was 80.2% and the inhibition at 50 µg/mL ([2]; 72 h incubation) was 79.8%. For the same compound, the IC50 ([2]; incubation time not stated) was 6.25 µg/mL (≈ 12.2 µM), the inhibition at 0.09 µg/mL ([3]; 48 h incubation) was 0% and the inhibition at 0.09 µg/mL ([3]; 72 h incubation) was 0%. It also gave an inhibition at 0.19 µg/mL ([3]; 48 h incubation) of 0%, an inhibition at 0.19 µg/mL ([3]; 72 h incubation) of 0% and an inhibition at 0.39 µg/mL ([3]; 48 h incubation) of 0%. The inhibition at 0.39 µg/mL ([3]; 72 h incubation) was 0%, the inhibition at 0.78 µg/mL ([3]; 48 h incubation) was 0% and the inhibition at 0.78 µg/mL ([3]; 72 h incubation) was 0%. It also gave an inhibition at 1.56 µg/mL ([3]; 48 h incubation) of 0%, an inhibition at 1.56 µg/mL ([3]; 72 h incubation) of 0% and an inhibition at 3.12 µg/mL ([3]; 48 h incubation) of 0%. The inhibition at 3.12 µg/mL ([3]; 72 h incubation) was 0%, the inhibition at 6.25 µg/mL ([3]; 48 h incubation) was 0% and the inhibition at 6.25 µg/mL ([3]; 72 h incubation) was 0%. For the same compound, the inhibition at 12.5 µg/mL ([3]; 48 h incubation) was 0%, the inhibition at 12.5 µg/mL ([3]; 72 h incubation) was 0% and the inhibition at 25 µg/mL ([3]; 48 h incubation) was 0%. It also gave an inhibition at 25 µg/mL ([3]; 72 h incubation) of 0%, an inhibition at 50 µg/mL ([3]; 48 h incubation) of 40.7% and an inhibition at 50 µg/mL ([3]; 72 h incubation) of 0%. For the same compound, the activity ([3]; at 48h) was “weak activity”, the activity ([3]; at 72 h) was “no activity” and the inhibition at 0.09 µg/mL ([4]; 24 h incubation) was 11.7%. It also gave an inhibition at 0.09 µg/mL ([4]; 48 h incubation) of 0%, an inhibition at 0.19 µg/mL ([4]; 24 h incubation) of 14.5% and an inhibition at 0.19 µg/mL ([4]; 48 h incubation) of 0%. The inhibition at 0.39 µg/mL ([4]; 24 h incubation) was 11.5%, the inhibition at 0.39 µg/mL ([4]; 48 h incubation) was 0% and the inhibition at 0.78 µg/mL ([4]; 24 h incubation) was 20.2%. It also gave an inhibition at 0.78 µg/mL ([4]; 48 h incubation) of 0%, an inhibition at 1.56 µg/mL ([4]; 24 h incubation) of 64.8% and an inhibition at 1.56 µg/mL ([4]; 48 h incubation) of 0%. It also gave an inhibition at 3.12 µg/mL ([4]; 24 h incubation) of 86.7%, an inhibition at 3.12 µg/mL ([4]; 48 h incubation) of 57% and an inhibition at 6.25 µg/mL ([4]; 24 h incubation) of 94.7%. The inhibition at 6.25 µg/mL ([4]; 48 h incubation) was 74.6%, the inhibition at 12.5 µg/mL ([4]; 24 h incubation) was 97.7% and the inhibition at 12.5 µg/mL ([4]; 48 h incubation) was 86.1%. For the same compound, the inhibition at 25 µg/mL ([4]; 24 h incubation) was 100%, the inhibition at 25 µg/mL ([4]; 48 h incubation) was 95.9% and the inhibition at 50 µg/mL ([4]; 24 h incubation) was 100%. For the same compound, the inhibition at 50 µg/mL ([4]; 48 h incubation) was 100%, the IC50 ([4]; 24 h of incubation) was 1.56 µg/mL (≈ 3.05 µM) and the MIC ([4]; 24 h of incubation, 100% of growth inhibition) was 25 µg/mL (≈ 48.9 µM). The inhibition at 0.09 µg/mL ([5]; 24 h incubation) was 34%, the inhibition at 0.09 µg/mL ([5]; 48 h incubation) was 0% and the inhibition at 0.19 µg/mL ([5]; 24 h incubation) was 37%. It also gave an inhibition at 0.19 µg/mL ([5]; 48 h incubation) of 0%, an inhibition at 0.39 µg/mL ([5]; 24 h incubation) of 34% and an inhibition at 0.39 µg/mL ([5]; 48 h incubation) of 0%. It also gave an inhibition at 0.78 µg/mL ([5]; 24 h incubation) of 50.5%, an inhibition at 0.78 µg/mL ([5]; 48 h incubation) of 0% and an inhibition at 1.56 µg/mL ([5]; 24 h incubation) of 46.3%. It also gave an inhibition at 1.56 µg/mL ([5]; 48 h incubation) of 0%, an inhibition at 3.12 µg/mL ([5]; 24 h incubation) of 45.4% and an inhibition at 3.12 µg/mL ([5]; 48 h incubation) of 0%. The inhibition at 6.25 µg/mL ([5]; 24 h incubation) was 47.7%, the inhibition at 6.25 µg/mL ([5]; 48 h incubation) was 0% and the inhibition at 12.5 µg/mL ([5]; 24 h incubation) was 70.7%. The inhibition at 12.5 µg/mL ([5]; 48 h incubation) was 0%, the inhibition at 25 µg/mL ([5]; 24 h incubation) was 71% and the inhibition at 25 µg/mL ([5]; 48 h incubation) was 0%. The inhibition at 50 µg/mL ([5]; 24 h incubation) was 81%, the inhibition at 50 µg/mL ([5]; 48 h incubation) was 18% and the IC50 ([5]; ATCC90029, 24 h of incubation) was 0.78 µg/mL (≈ 1.52 µM).
